Measured values as given in patent US20190100731A1, “EX-VIVO […] MODEL, METHODS OF PRODUCING SAME AND USES THEREOF” (The State of Israel, Ministry of Agriculture & Rural …, priority 2016, published 2019).
“Also recorded” adds a separate entry of the source.

Experiments:
[1] = system: IL-8; experiment: IL-8 secretion (ELISA) in D/C-treated ex-vivo intestinal biopsies; type: cell-based, human; parameters: IL-8 secretion Value: unit not given here
Description: (§1) Biopsies (3 mm3) obtained from inflamed or healthy intestines and placed in PBS were treated with a Dispase (1 U/ml, Cat # 07923, StemCell Technologies Inc.) and Collagenase Type 1 (0.5 mg/ml with an activity of 0.5-2 U/mg Cat # 07902, StemCell Technologies Inc.) solution. Tubes were then incubated for 2-3h at 37° C.
After incubation, the tubes containing the biopsies were centrifuged at 5000 rpm for 1 minute. Then the supernatants were removed and tissues were washed three times with Hank's balance salt solution (HBSS). After each wash tubes were centrifuged as mentioned above. Then the tissues were placed on small Petri dish and cut into 2-3 pieces with a clean scalpel. Explants were cultured in groups of 2-3 with the villus surface facing up on microporous membranes (0.45-m pore size) contained in either Millicell-HA or organotypic tissue culture inserts (Millipore) placed inside 6-well plastic tissue culture dishes (Costar 3506) along with 1.5 ml of tissue culture medium. The tissue culture medium was Dulbecco's modified Eagle's medium supplemented with 10% heat-inactivated fetal calf serum, penicillin (100units/ml), streptomycin (100 μg/ml), leupeptin (50 μg/ml), PMSF (1 mM), soybean trypsin inhibitor (50 μg/ml). In cases dexamethasone (DX) was included in the media, its concentration was 200 μg/ml. This is followed by treating the samples with Control and extracts treatments (cannabis or other). In cases TNF-α is added to induce ILs expression the concentration was 50 μg/ml. Cultures are then incubated at 37° C. and gassed hourly with 95% oxygen and 5% carbon dioxide. For evaluation of TNF-α expression, supernatants are taken after 1 h of incubation. For other ILs, supernatants are taken after overnight incubation unless mentioned differently. The supernatants from biopsies are used for determination of cytokine profile by measuring their levels using commercial ELISA Kits. The following cytokines were measured: TNF Alfa (the supernatant was taken after 1-3 h), for the rest of the cytokines and interleukins supernatant was analyzed after 16 hours. The following factors were analyzed: IFN gamma, TFG beta, IL-10, IL-23/IL-23R, IL-12, IL-1 (IL 113), IL 2, IL-8/IL-8R, IL-6, IL-17, IL-13, IL-5, IL-4, IL-3. Levels of secreted factors from inflamed and healthy tissue and from cannabis treated and not treated tissue were compared. After all samples are taken, tissue viability will be assessed by addition of Alamar blue (Risazurin) as described below.
Biopsies obtained from both healthy and sick intestinal samples of two patients were cultured overnight incubation using the full protocol (D/C) described in material and methods section hereinabove. Seven different cytokines were evaluated following overnight incubation using specific ELISA kits manufactured by R&D Systems.
The cytokines tested included TNF-α, IL-6, IL-8, IL-10, IL-12, IL-17 and IL-27. In addition to the ethanolic cannabis extract was tested for its ability to reduce inflammation. After supernatant sampling, additional media was added to the wells and Resazurin (alamar blue) viability assay was carried out. […] Responsive cytokines that show significant levels of expression (FIGS. 1A-F) on one hand vs. other ILs in which basal level were obtained which didn't allow a clear conclusion (FIGS. 2A-D).
Several more experiments were done to corroborate the above results. These are summarized in Table 1 below(C2F and F7 and dexamethasone).

[2] = system: IL-6; experiment: IL-6 production (ELISA) in ex-vivo intestinal biopsies; type: cell-based, human; conditions: D/C treated biopsies of patient P6; 18 hours; pure CBD 25 μM / 16.6 μM (FIG. 5)
Description: as §1
After incubation, the tubes containing the biopsies were centrifuged at 5000 rpm for 1 minute. Then the supernatants were removed and tissues were washed three times with Hank's balance salt solution (HBSS). After each wash tubes were centrifuged as mentioned above. Then the tissues were placed on small Petri dish and cut into 2-3 pieces with a clean scalpel. […] The following cytokines were measured: TNF Alfa (the supernatant was taken after 1-3 h), for the rest of the cytokines and interleukins supernatant was analyzed after 16 hours. The following factors were analyzed: IFN gamma, TFG beta, IL-10, IL-23/IL-23R, IL-12, IL-1 (IL 113), IL 2, IL-8/IL-8R, IL-6, IL-17, IL-13, IL-5, IL-4, IL-3. […] After all samples are taken, tissue viability will be assessed by addition of Alamar blue (Risazurin) as described below. […]

[3] = biopsy PH-13-H: healthy patient 13, healthy tissue
[4] = biopsy PH-15-H: healthy patient 15, healthy tissue
[5] = biopsy PS-3-H: sick patient 3, healthy tissue
[6] = biopsy PS-3-S: sick patient 3, sick tissue
[7] = biopsy PS-4-H: sick patient 4, healthy tissue
[8] = biopsy PS-4-S: sick patient 4, sick tissue
[9] = biopsy PS-7-H: sick patient 7, healthy tissue
[10] = biopsy PS-7-S: sick patient 7, sick tissue
[11] = biopsy PS-8-H: sick patient 8, healthy tissue
[12] = biopsy PS-11-H: sick patient 11, healthy tissue
[13] = biopsy PS-11-S: sick patient 11, sick tissue
[14] = biopsy PS-12-H: sick patient 12, healthy tissue
[15] = biopsy PS-12-S: sick patient 12, sick tissue
[16] = biopsy PS-14-H: sick patient 14, healthy tissue
[17] = biopsy PS-14-S: sick patient 14, sick tissue
[18] = biopsy PS-16-H: sick patient 16, healthy tissue
[19] = biopsy PS-16-S: sick patient 16, sick tissue
[20] = biopsy PS-17-H: sick patient 17, healthy tissue
[21] = biopsy PS-17-S: sick patient 17, sick tissue
[22] = biopsy PS-18-H: sick patient 18, healthy tissue
[23] = biopsy PS-18-S: sick patient 18, sick tissue
[24] = biopsy PS-19-H: sick patient 19, healthy tissue
[25] = biopsy PS-19-S: sick patient 19, sick tissue

C[C@@H]1C[C@H]2[C@@H]3CCC4=CC(=O)C=C[C@]4(C)[C@@]3(F)[C@@H](O)C[C@]2(C)[C@@]1(O)C(=O)CO [Dexamethasone, dexamethasone]
IL-8 secretion % Reduction from NT [1, 3]: −1.1% | IL-8 secretion Value [1, 3]: 844.6 | IL-8 secretion % Reduction from NT [1, 4]: 46.4% | IL-8 secretion Value [1, 4]: 451.9 | IL-8 secretion % Reduction from NT [1, 5]: 32.4% | IL-8 secretion Value [1, 5]: 670.1 | IL-8 secretion % Reduction from NT [1, 6]: 17.5% | IL-8 secretion Value [1, 6]: 742.6 | IL-8 secretion % Reduction from NT [1, 7]: 4.3% | IL-8 secretion Value [1, 7]: 915.4 | IL-8 secretion % Reduction from NT [1, 8]: 78.3% | IL-8 secretion Value [1, 8]: 216.9 | IL-8 secretion % Reduction from NT [1, 9]: 14.7% | IL-8 secretion Value [1, 9]: 745.1 | IL-8 secretion % Reduction from NT [1, 10]: −5.6% | IL-8 secretion Value [1, 10]: 793.9 | IL-8 secretion % Reduction from NT [1, 11]: 69.5% | IL-8 secretion Value [1, 11]: 215.3 | IL-8 secretion % Reduction from NT [1, 12]: 94.8% | IL-8 secretion Value [1, 12]: 34.9 | IL-8 secretion % Reduction from NT [1, 13]: 83.3% | IL-8 secretion Value [1, 13]: 74.2 | IL-8 secretion % Reduction from NT [1, 14]: 43.7% | IL-8 secretion Value [1, 14]: 530.6 | IL-8 secretion % Reduction from NT [1, 15]: 4.0% | IL-8 secretion Value [1, 15]: 817.8 | IL-8 secretion % Reduction from NT [1, 16]: 44.2% | IL-8 secretion Value [1, 16]: 485.8 | IL-8 secretion % Reduction from NT [1, 17]: 24.1% | IL-8 secretion Value [1, 17]: 666.8 | IL-8 secretion % Reduction from NT [1, 18]: 38.3% | IL-8 secretion Value [1, 18]: 166.5 | IL-8 secretion % Reduction from NT [1, 19]: 83.6% | IL-8 secretion Value [1, 19]: 96.7 | IL-8 secretion % Reduction from NT [1, 20]: 68.9% | IL-8 secretion Value [1, 20]: 303.5 | IL-8 secretion % Reduction from NT [1, 21]: 0.5% | IL-8 secretion Value [1, 21]: 1064.0 | IL-8 secretion % Reduction from NT [1, 22]: 66.4% | IL-8 secretion Value [1, 22]: 331.0 | IL-8 secretion % Reduction from NT [1, 23]: 36.1% | IL-8 secretion Value [1, 23]: 484.9 | IL-8 secretion % Reduction from NT [1, 24]: 32.6% | IL-8 secretion Value [1, 24]: 86.0 | IL-8 secretion % Reduction from NT [1, 25]: 64.2% | IL-8 secretion Value [1, 25]: 80.5

C=C(C)[C@@H]1CCC(C)=C[C@H]1c1c(O)cc(CCCCC)cc1O [CBD, Cannabidiol]
anti-inflammatory activity (IL-6 production) [2]: doesn't harbor any anti-inflammatory activity; also recorded: no anti-inflammatory activity
